Article PMC9516332 (Frontiers in Oncology, 2022)
Like-named read-outs stand apart in the source and are kept apart here.

How the values were obtained:
[1] = target: T1, panel of 255 wild-type kinases (Homo sapiens, UniProt P15735); conditions: kinase PHKG2; 1 µmol/L single concentration; ref DOI: 10.1371/journal.pone.0092146; cited from earlier work
T1 sequence (P15735 1-406): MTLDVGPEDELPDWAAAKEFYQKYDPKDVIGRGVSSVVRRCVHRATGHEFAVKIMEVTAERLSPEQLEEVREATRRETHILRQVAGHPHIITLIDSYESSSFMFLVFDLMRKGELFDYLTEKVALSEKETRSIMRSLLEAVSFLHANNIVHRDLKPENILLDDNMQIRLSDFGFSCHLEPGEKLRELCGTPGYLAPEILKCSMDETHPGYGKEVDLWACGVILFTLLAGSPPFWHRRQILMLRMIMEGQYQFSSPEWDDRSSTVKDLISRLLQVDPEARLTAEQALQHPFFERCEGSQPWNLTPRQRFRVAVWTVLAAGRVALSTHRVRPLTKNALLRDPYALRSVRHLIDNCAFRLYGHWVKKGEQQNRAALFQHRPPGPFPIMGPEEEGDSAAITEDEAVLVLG

134 cancer cell lines = assay: Cell viability assay (ATPlite, 72 hours), IC50 on cancer cell line panel

CCCS(=O)(=O)Nc1ccc(F)c(C(=O)c2c[nH]c3ncc(-c4ccc(Cl)cc4)cc23)c1F [vemurafenib]
28.3 µM: IC50 (134 cancer cell lines; Homo sapiens, Jurkat E6.1, read-out: IC50 in cell proliferation assay, Jurkat E6.1 cell line)
21.6 µM: IC50 (134 cancer cell lines; Homo sapiens, A498, read-out: IC50 in cell proliferation assay, cell line A-498)
1.83 µM: IC50 (134 cancer cell lines; Homo sapiens, DU-4475, read-out: IC50 in cell proliferation assay, cell line DU4475 (BRAF p.V600E))
28.2 µM: IC50 (134 cancer cell lines; Homo sapiens, BXPC-3, read-out: IC50 in cell proliferation assay, cell line BxPC-3)
1.28 µM: IC50 (134 cancer cell lines; Homo sapiens, LS-411N, read-out: IC50 in cell proliferation assay, LS411N cell line (BRAF p.V600E))
8.9 µM: IC50 (134 cancer cell lines; Homo sapiens, MOLM-13, read-out: IC50 in cell proliferation assay, MOLM-13 cell line (FLT3 ITD))
20.1 µM: IC50 (134 cancer cell lines; Homo sapiens, ACHN, read-out: IC50 in cell proliferation assay, cell line ACHN)
3.25 µM: IC50 (134 cancer cell lines; Homo sapiens, G-361, read-out: IC50 in cell proliferation assay, cell line G-361 (BRAF p.V600E))
1.62 µM: IC50 (134 cancer cell lines; Homo sapiens, EOL1, read-out: IC50 in cell proliferation assay, cell line EoL-1 (FIP1L1-PDGFRA))
1.76 µM: IC50 (134 cancer cell lines; Homo sapiens, A-375, read-out: IC50 in cell proliferation assay, cell line A-375 (BRAF p.V600E))
29.5 µM: IC50 (134 cancer cell lines; Homo sapiens, KMS-11, read-out: IC50 in cell proliferation assay, KMS-11 cell line (FGFR3 p.Y373C))
30.6 µM: IC50 (134 cancer cell lines; Homo sapiens, Hs-578T, read-out: IC50 in cell proliferation assay, Hs 578T cell line)
2.22 µM: IC50 (134 cancer cell lines; Homo sapiens, COLO-829, read-out: IC50 in cell proliferation assay, cell line COLO 829 (BRAF p.V600E))
9.43 µM: IC50 (134 cancer cell lines; Homo sapiens, HT-1080, read-out: IC50 in cell proliferation assay, HT-1080 cell line)
27.6 µM: IC50 (134 cancer cell lines; Homo sapiens, CCRF-CEM, read-out: IC50 in cell proliferation assay, cell line CCRF-CEM)
28.5 µM: IC50 (134 cancer cell lines; Homo sapiens, KU812, read-out: IC50 in cell proliferation assay, Ku812 cell line)
20.7 µM: IC50 (134 cancer cell lines; Homo sapiens, KATO III, read-out: IC50 in cell proliferation assay, KATO III cell line (FGFR2 amplification))
31.2 µM: IC50 (134 cancer cell lines; Homo sapiens, A549, read-out: IC50 in cell proliferation assay, cell line A-549) | IC50 (134 cancer cell lines; Homo sapiens, BT-549, read-out: IC50 in cell proliferation assay, cell line BT-549)
25.1 µM: IC50 (134 cancer cell lines; Homo sapiens, 786-0, read-out: IC50 in cell proliferation assay, cell line 786-O)
> 31.6 µM: IC50 (134 cancer cell lines; HEC-6, read-out: IC50 in cell proliferation assay, HEC-6 cell line (EGFR p.A289V)) | IC50 (134 cancer cell lines; Homo sapiens, 769-P, read-out: IC50 in cell proliferation assay, cell line 769-P) | IC50 (134 cancer cell lines; Homo sapiens, A 172, read-out: IC50 in cell proliferation assay, cell line A-172) | IC50 (134 cancer cell lines; Homo sapiens, A204, read-out: IC50 in cell proliferation assay, cell line A-204) | IC50 (134 cancer cell lines; Homo sapiens, A704, read-out: IC50 in cell proliferation assay, cell line A-704) | IC50 (134 cancer cell lines; Homo sapiens, A-427, read-out: IC50 in cell proliferation assay, cell line A-427) | IC50 (134 cancer cell lines; Homo sapiens, AN3-CA, read-out: IC50 in cell proliferation assay, cell line AN3-CA (FGFR2 p.N549K)) | IC50 (134 cancer cell lines; Homo sapiens, ASPC1, read-out: IC50 in cell proliferation assay, cell line AsPC-1) | IC50 (134 cancer cell lines; Homo sapiens, AU565, read-out: IC50 in cell proliferation assay, cell line AU565 (ERBB2 amplification)) | IC50 (134 cancer cell lines; Homo sapiens, BT-20, read-out: IC50 in cell proliferation assay, cell line BT-20) | IC50 (134 cancer cell lines; Homo sapiens, BT-474, read-out: IC50 in cell proliferation assay, cell line BT-474 (ERBB2 amplification)) | IC50 (134 cancer cell lines; Homo sapiens, C-33-A, read-out: IC50 in cell proliferation assay, cell line C-33 A) | IC50 (134 cancer cell lines; Homo sapiens, CAL-27, read-out: IC50 in cell proliferation assay, cell line CAL-27) | IC50 (134 cancer cell lines; Homo sapiens, CCF-STTG1, read-out: IC50 in cell proliferation assay, cell line CCF-STTG1) | IC50 (134 cancer cell lines; Homo sapiens, DLD-1, read-out: IC50 in cell proliferation assay, cell line DLD-1) | IC50 (134 cancer cell lines; Homo sapiens, Daoy, read-out: IC50 in cell proliferation assay, cell line Daoy) | IC50 (134 cancer cell lines; Homo sapiens, DoTc2-4510, read-out: IC50 in cell proliferation assay, cell line DoTc2 4510) | IC50 (134 cancer cell lines; Homo sapiens, FaDu, read-out: IC50 in cell proliferation assay, cell line FaDu) | IC50 (134 cancer cell lines; Homo sapiens, HCC827, read-out: IC50 in cell proliferation assay, cell line HCC827 (EGFR exon19del)) | IC50 (134 cancer cell lines; Homo sapiens, HCC4006, read-out: IC50 in cell proliferation assay, cell line HCC4006 (EGFR exon19del)) | IC50 (134 cancer cell lines; Homo sapiens, HCT-15, read-out: IC50 in cell proliferation assay, cell line HCT 15) | IC50 (134 cancer cell lines; Homo sapiens, HCT-116, read-out: IC50 in cell proliferation assay, cell line HCT 116) | IC50 (134 cancer cell lines; Homo sapiens, HEC-1, read-out: IC50 in cell proliferation assay, HEC-1 cell line) | IC50 (134 cancer cell lines; Homo sapiens, HEC-1B, read-out: IC50 in cell proliferation assay, HEC-1-B cell line (EGFR p.A864V)) | IC50 (134 cancer cell lines; Homo sapiens, HL-60, read-out: IC50 in cell proliferation assay, HL-60 cell line) | IC50 (134 cancer cell lines; Homo sapiens, HT, read-out: IC50 in cell proliferation assay, HT cell line) | IC50 (134 cancer cell lines; Homo sapiens, Hs746T, read-out: IC50 in cell proliferation assay, Hs 746.T cell line (MET exon14skip + amplification)) | IC50 (134 cancer cell lines; Homo sapiens, HuTu80, read-out: IC50 in cell proliferation assay, HuTu 80 cell line) | IC50 (134 cancer cell lines; Homo sapiens, J82, read-out: IC50 in cell proliferation assay, J82 cell line) | IC50 (134 cancer cell lines; Homo sapiens, K562, read-out: IC50 in cell proliferation assay, K-562 cell line) | IC50 (134 cancer cell lines; Homo sapiens, KG-1, read-out: IC50 in cell proliferation assay, KG-1 cell line (FGFR1OP2-FGFR1)) | IC50 (134 cancer cell lines; Homo sapiens, KLE, read-out: IC50 in cell proliferation assay, KLE cell line) | IC50 (134 cancer cell lines; Homo sapiens, Kasumi 1, read-out: IC50 in cell proliferation assay, Kasumi-1 cell line (KIT p.N822K)) | IC50 (134 cancer cell lines; Homo sapiens, LC-2-ad, read-out: IC50 in cell proliferation assay, LC-2/ad cell line (CCDC6-RET)) | IC50 (134 cancer cell lines; Homo sapiens, LNCaP-Clone-FGC, read-out: IC50 in cell proliferation assay, LNCaP clone FGC cell line) | IC50 (134 cancer cell lines; Homo sapiens, LS174T, read-out: IC50 in cell proliferation assay, LS174T cell line) | IC50 (134 cancer cell lines; Homo sapiens, LoVo, read-out: IC50 in cell proliferation assay, LoVo cell line) | IC50 (134 cancer cell lines; Homo sapiens, MCF7, read-out: IC50 in cell proliferation assay, MCF-7 cell line) | IC50 (134 cancer cell lines; Homo sapiens, MDA-MB-231, read-out: IC50 in cell proliferation assay, MDA-MB-231 cell line) | IC50 (134 cancer cell lines; Homo sapiens, MDA-MB-453, read-out: IC50 in cell proliferation assay, MDA-MB-453 cell line) | IC50 (134 cancer cell lines; Homo sapiens, MDA-MB-468, read-out: IC50 in cell proliferation assay, MDA-MB-468 cell line) | IC50 (134 cancer cell lines; Homo sapiens, MG-63, read-out: IC50 in cell proliferation assay, MG-63 cell line) | IC50 (134 cancer cell lines; Homo sapiens, MIA PaCa-2, read-out: IC50 in cell proliferation assay, MIA PaCa-2 cell line) | IC50 (134 cancer cell lines; Homo sapiens, MKN-45, read-out: IC50 in cell proliferation assay, MKN45 cell line (MET amplification))
-4.37%: %-inhibition at 1 µmol/L, PHKG2 [1]
0.744 µM: IC50 (134 cancer cell lines; Homo sapiens, COLO 205, read-out: IC50 in cell proliferation assay, cell line COLO 205 (BRAF p.V600E))
